Experiment [1] has as its system M. furfur. Kind of experiment: Agar plate diffusion assay, zone of inhibition. It is filed as cell-based, Malassezia furfur. Here is the method:
(§1) said first extract is analyzed for antifungal activity using agar plate diffusion assay and by time kill procedure. […] For time-kill procedure, the inoculum suspension of indicator strains of Malassezia (10^5 CFU/mL) is exposed to different concentration of First extract. Then, 50-μL aliquots is withdrawn at fixed intervals and evaluated. […] Said first extract is used further for down streaming to separate the antifungal peptides.
(§2) About 15 ml fraction which was obtained after anion exchange chromatography was lyophilized to get about 1500 mg of dry powder. About 50 mg was mixed with 1 ml sodium phosphate buffer and then said solution was injected to Scalar C18 column. The separation of the antifungal peptides was carried out by binary solvent gradient elution system comprising about 0.1% trifluoroacetic acid in HPLC grade deionized water (eluent A) and about 0.1% trifluoroacetic acid in acetonitrile (eluent B). The gradient program was as follows between: 0 to 20 min, 0-40% B, 20-30 min, 40 to 80% B, 30 to 35 min, 80 to 100% B, 35 to 45 min, 100 to 0% B at a flow rate of about 1.0 mL/min at 30° C., Six separate fractions were collected at retention times of 24.5, 28.2, 30.1, 32.2, 34.5 and 37.1 minutes and seventh fraction was collected from 38 to 43 minutes according to the absorption profile at 220 nm and 280 nm using the fraction collector and further freeze-dried. Individual fractions were labelled as 1, 2, 3, 4, 5, 6 and 7 in the order if increasing retention times, dissolved in sterile distilled water and then tested for their individual antifungal activity. […] And fraction 5 was not reported against M. furfur, M. globose species. For experiment the 0.1 M sodium phosphate buffer was used as a negative control and Ketoconazol was used as a positive control

Experiment [2] relates to M. globosa. Kind of experiment: Agar plate diffusion assay, zone of inhibition. It is filed as cell-based, Malassezia globosa. Here is the method:
as §1, §2

The subject of experiment [3] is M. furfur. Kind of experiment: MIC and MFC by broth microdilution technique. It is filed as cell-based, Malassezia furfur. Particulars: for MFC: first figure of MFC/MIC cell; for MIC: second figure of MFC/MIC cell. Here is the method: (§3) The MIC of first extract and individual fractions (1-7) which were collected from RP-HPLC was calculated by ‘broth microdilution technique’ in 96-well microtiter plates. […] As a positive control, commercially used antifungal drug ketoconazole was used in concentrations ranging from 32 μg/mL to 0.0156 μg/mL. The plates were incubated at 30° C. for Malassezia spp and the results were recorded after 48 h and 7 days. The minimum inhibitory concentration (MIC) was measured as the lowest sample concentration that could inhibit the fungal growth.
On the technique in general: Broth dilution looks for growth in wells or tubes with falling amounts of substance.

For experiment [4], the system named is M. globosa. Kind of experiment: MIC and MFC by broth microdilution technique. Format: cell-based, Malassezia globosa. Particulars: for MFC: first figure of MFC/MIC cell; for MIC: second figure of MFC/MIC cell. Here is the method:
as §3

Experiment [5] relates to Malassezia indicator strains. Kind of experiment: Agar plate diffusion assay, antifungal activity in words. It is filed as cell-based. Conditions: against Malassezia, compared among fractions 1-7. Here is the method: as §1
About 15 ml fraction which was obtained after anion exchange chromatography was lyophilized to get about 1500 mg of dry powder. About 50 mg was mixed with 1 ml sodium phosphate buffer and then said solution was injected to Scalar C18 column. The separation of the antifungal peptides was carried out by binary solvent gradient elution system comprising about 0.1% trifluoroacetic acid in HPLC grade deionized water (eluent A) and about 0.1% trifluoroacetic acid in acetonitrile (eluent B). The gradient program was as follows between: 0 to 20 min, 0-40% B, 20-30 min, 40 to 80% B, 30 to 35 min, 80 to 100% B, 35 to 45 min, 100 to 0% B at a flow rate of about 1.0 mL/min at 30° C., Six separate fractions were collected at retention times of 24.5, 28.2, 30.1, 32.2, 34.5 and 37.1 minutes and seventh fraction was collected from 38 to 43 minutes according to the absorption profile at 220 nm and 280 nm using the fraction collector and further freeze-dried. […]

Values after ≈ are worked out from the molar mass of the structure shown. “Also recorded” adds a separate entry of the source. Like-named read-outs stand apart in the source and are kept apart here.

For the compound `C[C@@H]1CCC/C=C/C=C/[C@H](O)C[C@@H](O)C/C=C\C=C\[C@@H](O)C/C=C/C=C\C(=O)O1` [Fraction 5, Macrolactin A], the Zone of inhibition with M. furfur [1] amounted to 2 ± 0.77 mm; with M. globosa [2] it was 2 ± 0.69 mm. The figures for the MFC in the experiment on M. furfur [3] (M. furfur), against M. furfur [3] (first M. furfur column) and with M. globosa [4] were 330 µg/mL (≈ 820 µM), 313 µg/mL (≈ 778 µM) and 275 µg/mL (≈ 683 µM), respectively. The MIC was found to be 165 µg/mL (≈ 410 µM) with M. furfur [3] (M. furfur), 156 µg/mL (≈ 388 µM) with M. furfur [3] (first M. furfur column) and 138 µg/mL (≈ 343 µM) with M. globosa [4]. For the same compound, in experiment [5], the “antifungal activity of individual fractions in words” value is reported as “strongest anti-fungal activity”.

For the compound C15 Bacillomycin D [Fraction 3], the Zone of inhibition in the experiment with M. furfur [1] came out at 3 ± 0.26 mm; with M. globosa [2], 2 ± 0.25 mm. Further, the MFC in the experiment on M. furfur [3] (M. furfur), against M. furfur [3] (first M. furfur column) and in the experiment on M. globosa [4] was above 228 µg/mL in each case. Moreover, the minimum inhibitory concentration (MIC) against M. furfur [3] (M. furfur), against M. furfur [3] (first M. furfur column) and against M. globosa [4] was above 228 µg/mL throughout.

Turning to `CC(=O)N1CCN(c2ccc(OCC3COC(Cn4ccnc4)(c4ccc(Cl)cc4Cl)O3)cc2)CC1` (stereo not drawn) [Ketoconazole, reference compound], the Zone of inhibition with M. furfur [1] was 12 ± 0.65 mm; in the experiment on M. globosa [2], 11 ± 0.64 mm. The MFC was 0.1 µg/mL (≈ 0.188 µM) against M. furfur [3] (M. furfur); 0.1 µg/mL (≈ 0.188 µM) with M. furfur [3] (Malassezia furfur, first M. furfur column, read-out: MFC); 0.08 µg/mL (≈ 0.151 µM) with M. globosa [4] (Malassezia globosa, read-out: MFC). Besides, the MIC in the experiment with M. furfur [3] (M. furfur) amounted to 0.03 µg/mL (≈ 0.0565 µM); with M. furfur [3] (Malassezia furfur, first M. furfur column, read-out: MIC) it was 0.03 µg/mL (≈ 0.0565 µM); with M. globosa [4] (Malassezia globosa, read-out: MIC), 0.03 µg/mL (≈ 0.0565 µM).

As to C16 Bacillomycin D [Fraction 4], the MFC in the experiment with M. furfur [3] (M. furfur), in the experiment with M. furfur [3] (first M. furfur column) and against M. globosa [4] was above 228 µg/mL throughout. In addition, the MIC with M. furfur [3] (M. furfur), with M. furfur [3] (first M. furfur column) and against M. globosa [4] was above 228 µg/mL each time.

As for C14 Bacillomycin D [Fraction 2], the Zone of inhibition stood at 2 ± 0.45 mm in the experiment with M. furfur [1] and 2 ± 0.42 mm with M. globosa [2]. Further, the MFC in the experiment with M. furfur [3] (M. furfur), with M. furfur [3] (first M. furfur column) and against M. globosa [4] was above 228 µg/mL throughout. Moreover, the MIC against M. furfur [3] (M. furfur), with M. furfur [3] (first M. furfur column) and in the experiment with M. globosa [4] was above 228 µg/mL throughout.

`CC1CCCC=CC=CC(O)CC(O)CC=CC=CC(OC(=O)CCC(=O)O)CC=CC=CC(=O)O1` (stereo not drawn) [Fraction 6, 7-O-succinylmacrolactin A]: the Zone of inhibition was found to be 6 ± 0.7 mm in the experiment on M. furfur [1] and 7 ± 0.65 mm in the experiment with M. globosa [2]. Besides, the MFC in the experiment on M. furfur [3] (M. furfur), against M. furfur [3] (first M. furfur column) and against M. globosa [4] was 96 µg/mL (≈ 191 µM) in each case. In addition, the minimal inhibitory concentration (MIC) with M. furfur [3] (M. furfur), in the experiment on M. furfur [3] (first M. furfur column) and in the experiment with M. globosa [4] was 48 µg/mL (≈ 95.5 µM) throughout. In addition, the “antifungal activity of individual fractions in words” value in experiment [5] was “strongest anti-fungal activity; also recorded: strongest antifungal activity”.

The MIC is the smallest concentration in the dilution series that meets the test's criterion for growth inhibition.

The values are drawn from patent US12508216B2, “Process for the preparation of antimalassezia powder” (PRAJ INDUSTRIES LIMITED, priority 2022, dated 2025).
